US12421249B2, “Inhibitors of APOL1 and methods of using same” (Vertex Pharmaceuticals Incorporated, priority 2020, dated 2025)
pIC50: −log10 of the molar value.

Assays:
APOL1 G1 = molecular target: T1, APOL1 G1 (Homo sapiens, UniProt O14791, I384M/S342G); experiment: Trypanosoma brucei brucei Lysis Assay Using APOL1 Recombinant Protein (AlamarBlue viability readout); assay type: cell-based; details: Trypanosome Assay; for pIC50: IP50 = IC50 for cell proliferation, read-out: Trypanosome Assay IP50; for Emax: read-out: Trypanosome Assay Max Activity (%)
T1 sequence (O14791 28-398 S342G/I384M): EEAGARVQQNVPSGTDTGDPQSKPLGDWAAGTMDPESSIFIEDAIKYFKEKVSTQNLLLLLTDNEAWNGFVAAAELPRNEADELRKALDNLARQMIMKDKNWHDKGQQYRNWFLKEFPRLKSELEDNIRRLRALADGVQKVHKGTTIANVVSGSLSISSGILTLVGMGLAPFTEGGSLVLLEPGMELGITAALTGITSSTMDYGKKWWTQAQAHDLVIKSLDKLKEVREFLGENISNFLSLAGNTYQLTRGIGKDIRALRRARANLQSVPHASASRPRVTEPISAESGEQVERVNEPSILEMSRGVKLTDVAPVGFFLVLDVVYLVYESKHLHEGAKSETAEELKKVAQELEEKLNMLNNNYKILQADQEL
Procedure, shortened: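 Percent viability comes from AlamarBlue (resazurin→resorufin) fluorescence interpolated on a standard curve of known parasite numbers, with no-APOL1 wells as 100%. Parasites (Lister 427 bloodstream form, 120,000/well, serum-free assay medium) meet 0.05 μg/mL APOL1 (~EC90). Compounds span a 10-point series, 0.1% DMSO final.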

APOL1 = molecular target: T2, APOL1 (Homo sapiens, UniProt O14791); experiment: Multi-Tox Assay (MultiTox-Fluor Multiplex Cytotoxicity Assay in tet-inducible APOL1 T-REx-HEK293 cells; Table 46 does not say which APOL1 variant G0/G1/G2); assay type: cell-based; details: APOL1 variant not given; for pIC50: IP50 = IC50 for cell proliferation
T2 sequence (O14791 1-398 S342G/I384M): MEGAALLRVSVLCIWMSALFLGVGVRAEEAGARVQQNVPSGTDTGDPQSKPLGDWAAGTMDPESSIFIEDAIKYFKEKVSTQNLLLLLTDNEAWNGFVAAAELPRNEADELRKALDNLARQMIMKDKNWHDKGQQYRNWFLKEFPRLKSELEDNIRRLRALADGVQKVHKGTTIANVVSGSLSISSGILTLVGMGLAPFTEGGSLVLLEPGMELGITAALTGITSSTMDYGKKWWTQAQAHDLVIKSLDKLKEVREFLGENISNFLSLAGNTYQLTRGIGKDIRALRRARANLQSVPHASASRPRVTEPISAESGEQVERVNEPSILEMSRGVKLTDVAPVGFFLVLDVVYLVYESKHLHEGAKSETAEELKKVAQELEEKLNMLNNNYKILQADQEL

Row | Structure (SMILES) | pIC50 (APOL1 G1) | Emax (APOL1 G1) [%] | IC90 (APOL1) [nM] | Multi-Tox Assay Max Activity (%) (APOL1) | pIC50 (APOL1)
1 | CC1CC2(CC(c3cn[nH]c3)N1)OCCc1cc(Cl)sc12 (stereo not shown) [Compound 31] | > 7.30 | 123 | < 50 | 100.0 | > 7.30
2 | CC1CC2(CC(c3cc(F)cc(C#N)c3)N1)OCCc1cc(Cl)sc12 (stereo not shown) [Compound 33] | > 7.30 | 111 | – | – | > 7.30
3 | COc1ccc(C2CC3(CC(C)N2)OCCc2cc(Cl)sc23)nc1 (stereo not shown) [Compound 34] | > 7.30 | 115 | – | 99.0 | > 7.30
4 | CC1CC2(CC(c3ccc4[nH]ncc4c3)N1)OCCc1cc(Cl)sc12 (stereo not shown) [Compound 35] | > 7.30 | 111 | – | – | > 7.30
5 | CC(=O)Nc1ccc(C2CC3(CC(C)N2)OCCc2cc(Cl)sc23)cn1 (stereo not shown) [Compound 37] | > 7.30 | 114 | – | – | > 7.30
6 | CC1CC2(CC(c3cnn(C)n3)N1)OCCc1cc(Cl)sc12 (stereo not shown) [Compound 38] | > 7.30 | 112 | – | – | > 7.30
7 | CC1CC2(CC(c3ccc4c(c3)OCC(=O)N4)N1)OCCc1cc(Cl)sc12 (stereo not shown) [Compound 39] | > 7.30 | 116 | – | – | > 7.30
8 | CC1CC2(CC(c3cnn(-c4cccnc4)c3)N1)OCCc1cc(Cl)sc12 (stereo not shown) [Compound 40] | > 7.30 | 118 | – | 100.0 | > 7.30
9 | CNC(=O)c1ccc(C2CC3(CC(C)N2)OCCc2cc(Cl)sc23)cc1 (stereo not shown) [Compound 41] | > 7.30 | 112 | – | – | > 7.30
10 | Cc1nn(C)c2ncc(C3CC4(CC(C)N3)OCCc3cc(Cl)sc34)cc12 (stereo not shown) [Compound 42] | > 7.30 | 110 | – | – | > 7.30
11 | Cc1cc(C2CC3(CC(C)N2)OCCc2cc(Cl)sc23)ncn1 (stereo not shown) [Compound 43] | > 7.30 | 103 | – | 100.0 | > 7.30
12 | CC1CC2(CC(c3cncnc3)N1)OCCc1cc(Cl)sc12 (stereo not shown) [Compound 45] | > 7.30 | 103 | – | 100.0 | > 7.30
13 | CC1CC2(CC(c3cnn(CCS(C)(=O)=O)c3)N1)OCCc1cc(Cl)sc12 (stereo not shown) [Compound 46] | > 7.30 | 108 | – | 99.0 | > 7.30
14 | CC1CC2(CC(c3cn(CC4CC4)nn3)N1)OCCc1cc(Cl)sc12 (stereo not shown) [Compound 122] | 6.30 to 7.30 | 106 | – | – | > 7.30
15 | C[C@H]1C[C@@]2(C[C@@H](c3cn(C)nn3)N1)OC[C@@H](O)c1cc(Cl)sc12 [Compound 174, (2′S,4S,6′S,7S)-2-chloro-2′-methyl-6′-(1-methyltriazol-4-yl)spiro[4,5-dihydrothieno[2,3-c]pyran-7,4′-piperidine]-4-ol] | > 7.30 | 104 | – | – | > 7.30
